From patent US20260317324A1, “BIFUNCTIONAL COMPOUNDS FOR DEGRADING BRAF VIA UBIQUITIN PROTEOSOME PATHWAY” (Nurix Therapeutics, Inc., priority 2023, published 2026) come the findings set out here.

Holding throughout (format): cell-based
The target in one assay is T1, BRAF G466V (Homo sapiens, UniProt P15056, G466V).
T1 construct: Horizon Discovery (HCT-116 BRAF−/− cells); host or cells: HCT-116 BRAF−/− cells, clone 8, lentiviral transduction
The assay can be described thus: BRAF HiBiT degradation assay, C-terminal HiBiT-tagged BRAF G466V overexpressed in HCT-116 BRAF−/− cells (clone 8), Nano-Glo HiBiT Lytic assay. The procedure, abridged:
(§1)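 HCT-116 BRAF−/− clones stably overexpressing C-terminal HiBiT-tagged mutant BRAF were seeded 24 h before treatment with an 11-point half-log series from 1 μM to 0.01 nM (0.2% DMSO final). Remaining protein was read by HiBiT lytic luminescence, with DMSO and wildtype-cell controls. DC50 was taken as the fitted concentration at 50% remaining protein; observed Dmax is reported relative to DMSO.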
For orientation: With HiBiT, luminescence reflects the tagged protein that the partner subunit can reach.

A further assay deals with T2, BRAF D594G (Homo sapiens, UniProt P15056, D594G).
T2 construct: Horizon Discovery (HCT-116 BRAF−/− cells); host or cells: HCT-116 BRAF−/− cells, clone 63, lentiviral transduction
T2 sequence (P15056 whole entry D594G): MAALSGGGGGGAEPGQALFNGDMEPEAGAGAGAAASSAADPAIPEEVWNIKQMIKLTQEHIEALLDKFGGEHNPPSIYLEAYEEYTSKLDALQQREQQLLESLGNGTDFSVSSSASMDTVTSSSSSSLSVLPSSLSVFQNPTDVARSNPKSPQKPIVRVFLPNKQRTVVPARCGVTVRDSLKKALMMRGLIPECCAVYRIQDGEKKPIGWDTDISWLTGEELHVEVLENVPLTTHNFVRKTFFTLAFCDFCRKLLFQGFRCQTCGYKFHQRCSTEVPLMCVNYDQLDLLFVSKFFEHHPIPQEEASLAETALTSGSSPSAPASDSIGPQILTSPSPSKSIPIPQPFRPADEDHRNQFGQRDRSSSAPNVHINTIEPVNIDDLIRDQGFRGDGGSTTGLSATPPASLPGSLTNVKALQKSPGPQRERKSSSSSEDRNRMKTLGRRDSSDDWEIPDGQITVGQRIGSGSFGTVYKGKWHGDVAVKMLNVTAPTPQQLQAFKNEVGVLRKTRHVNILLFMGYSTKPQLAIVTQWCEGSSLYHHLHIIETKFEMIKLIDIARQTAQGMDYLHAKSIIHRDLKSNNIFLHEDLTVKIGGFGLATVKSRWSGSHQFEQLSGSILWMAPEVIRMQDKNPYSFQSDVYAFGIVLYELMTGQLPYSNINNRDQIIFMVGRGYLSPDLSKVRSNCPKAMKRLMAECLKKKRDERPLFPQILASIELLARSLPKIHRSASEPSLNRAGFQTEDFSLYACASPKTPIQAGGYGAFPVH
The assay can be described thus: BRAF HiBiT degradation assay, C-terminal HiBiT-tagged BRAF D594G overexpressed in HCT-116 BRAF−/− cells (clone 63), Nano-Glo HiBiT Lytic assay. The procedure, abridged:
as §1

A further assay deals with T3, BRAF G469A (Homo sapiens, UniProt P15056, G469A).
T3 construct: Horizon Discovery (HCT-116 BRAF−/− cells); host or cells: HCT-116 BRAF−/− cells, clone 34, lentiviral transduction
T3 sequence (P15056 whole entry G469A): as the sequence (P15056 whole entry D594G) above, with G469A, G594D counted along it
The assay can be described thus: BRAF HiBiT degradation assay, C-terminal HiBiT-tagged BRAF G469A overexpressed in HCT-116 BRAF−/− cells (clone 34), Nano-Glo HiBiT Lytic assay. The procedure, abridged:
as §1

Another assay addresses T4, BRAF V600E (Homo sapiens, UniProt P15056, V600E).
T4 construct: endogenous C-terminal HiBiT fusion tag on BRAF V600E allele; endogenous in cells; host or cells: A375 clone 1F10 (CRISPR-Cas9 knock-in of the HiBiT tag; parental A375 from ATCC)
Briefly: BRAF HiBiT degradation assay, C-terminal HiBiT-tagged BRAF V600E A375 cells (clone 1F10), Nano-Glo HiBiT Lytic assay. Conditions: for Dmax: A-375. The procedure, abridged: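 A375 cells (clone 1F10, endogenous C-terminal HiBiT on BRAF V600E) were seeded at 10,000 cells/well, grown 24 h, then dosed in duplicate with an 11-point series from 1 μM to 0.01 nM (0.2% DMSO). Nano-Glo HiBiT lytic luminescence was normalised to DMSO and wildtype-A375 background; DC50 was read at 50% protein remaining, alongside observed Dmax.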

Where [1] appears, read: BRAF G466V, DC50 at 50%: fitted conc. at Y=50.
Where [2] appears, read: HCT-116, BRAF G466V, percentage protein degraded at maximal compound effect relative to DMSO.
Setting [3] is: BRAF D594G, DC50 at 50%: fitted conc. at Y=50.
Where [4] appears, read: HCT-116, BRAF D594G, percentage protein degraded at maximal compound effect relative to DMSO.
Setting [5] is: Class 2, BRAF G469A, DC50 at 50%: fitted conc. at Y=50.
Setting [6] is: HCT-116, Class 2, BRAF G469A, percentage protein degraded at maximal compound effect relative to DMSO.
[7] abbreviates: A375 (BRAF V600E), DC50 at 50%: fitted conc. at Y=50.
The mark [8] stands for this setting: A375 (BRAF V600E), percentage protein degraded at maximal compound effect relative to DMSO.
[9] abbreviates: BRAF G466V (Class 3), HCT-116 BRAF−/− cells, DC50 at 50% degradation.
[10] abbreviates: BRAF G466V (Class 3), HCT-116 BRAF−/− cells, observed Dmax relative to DMSO control.
Where [11] appears, read: BRAF D594G (Class 3), HCT-116 BRAF−/− cells, DC50 at 50% degradation.
The mark [12] stands for this setting: BRAF D594G (Class 3), HCT-116 BRAF−/− cells, observed Dmax relative to DMSO control.
Setting [13] is: BRAF G469A (Class 2), HCT-116 BRAF−/− cells, DC50 at 50% degradation.
[14] abbreviates: BRAF G469A (Class 2), HCT-116 BRAF−/− cells, observed Dmax relative to DMSO control.
Where [15] appears, read: A375 (BRAF V600E, Class 1), DC50 at 50% degradation.
The mark [16] stands for this setting: A375 (BRAF V600E, Class 1), observed Dmax, % protein degraded relative to DMSO control.

As usually defined, the DC50 is the concentration at which degradation of the target reaches its halfway point. Low values mean degradation at low concentration, high ones degradation only at high concentration. By Dmax is commonly meant the greatest extent of degradation seen.

T4 sequence (P15056 whole entry V600E, the tested form may be a part): as the sequence (P15056 whole entry D594G) above, with G594D, V600E counted along it
T1 sequence (P15056 whole entry G466V): as the sequence (P15056 whole entry D594G) above, with G466V, G594D counted along it

Consider `CCCS(=O)(=O)Nc1cccc(-c2nc(C3CCN(C(=O)C4(C)CCN(C(=O)C5CCN(c6ccc(C7CCC(=O)NC7=O)cn6)CC5)CC4)CC3)sc2-c2ccnc(N)n2)c1F` (racemic) [Compound 197, Rac-N-{3-[5-(2-aminopyrimidin-4-yl)-2-{1-[1-(1-{5-[(3R)-2,6-dioxopiperidin-3-yl]pyridin-2-yl}piperidine-4-carbonyl)-4-methylpiperidine-4-carbonyl]piperidin-4-yl}-1,3-thiazol-4-yl]-2-fluorophenyl}propane-1-sulfonamide], for which the DC50 on BRAF G466V (setting [1]) is less than 10 nM; at BRAF D594G (setting [3]) it was less than 10 nM; on BRAF G469A (setting [5]) it was 10 to 50 nM; on BRAF V600E (setting [7]) it was less than 10 nM. Besides, the maximal degradation (Dmax) was 30 to 70% on BRAF G466V (setting [2]), 30 to 70% at BRAF D594G (setting [4]), 30 to 70% at BRAF G469A (setting [6]) and more than 70% on BRAF V600E (setting [8]).
In the case of `CCN(C)S(=O)(=O)Nc1cc(Cl)cc(-c2cn(-c3ccc(N4CCN(CC5CCN(c6ccc([C@H]7CCC(=O)NC7=O)cc6)CC5)CC4)cc3)nc2-c2ccncc2)c1F` [Compound 306, (3R)-3-(4-{4-[(4-{4-[4-(5-chloro-3-{[ethyl(methyl)sulfamoyl]amino}-2-fluorophenyl)-3-(pyridin-4-yl)-1H-pyrazol-1-yl]phenyl}piperazin-1-yl)methyl]piperidin-1-yl}phenyl)piperidine-2,6-dione], the DC50 at BRAF G466V (setting [9]) is less than 10 nM; at BRAF D594G (setting [11]) it was less than 10 nM; at BRAF G469A (setting [13]), 10 to 50 nM; on BRAF V600E (setting [15]), less than 10 nM. The Dmax at BRAF G466V (setting [10]) is more than 70%; at BRAF D594G (setting [12]), 30 to 70%; at BRAF G469A (setting [14]) it was 30 to 70%; on BRAF V600E (setting [16]), more than 70%.
For the molecule `CCCS(=O)(=O)Nc1cccc(-c2nc(C(C)(C)C)sc2-c2ccnc(Nc3cnn(C4CCN(CC5CCN(c6ccc7c(=O)n(C8CCC(=O)NC8=O)ccc7c6)CC5)CC4)c3)n2)c1F` (racemic) [Compound 80, Rac-N-[3-(2-tert-butyl-5-{2-[(1-f{1-[(1-{2-[(3R)-2,6-dioxopiperidin-3-yl]-1-oxo-1,2-dihydroisoquinolin-6-yl}piperidin-4-yl)methyl]piperidin-4-yl}-1H-pyrazol-4-yl)amino]pyrimidin-4-yl}-1,3-thiazol-4-yl)-2-fluorophenyl]propane-1-sulfonamide], the DC50 at BRAF G466V (setting [1]) is more than 500 nM; at BRAF D594G (setting [3]), more than 500 nM; at BRAF G469A (setting [5]) it was more than 500 nM; on BRAF V600E (setting [7]), less than 10 nM. Besides, the Dmax was 30 to 70% on BRAF G466V (setting [2]), 30 to 70% on BRAF D594G (setting [4]), less than 30% at BRAF G469A (setting [6]) and more than 70% on BRAF V600E (setting [8]).
In the case of `CCN(C)S(=O)(=O)Nc1cc(Cl)cc(-c2cn(-c3ccc(N4CCN(CC5CCN(c6ccc(N7CCC(=O)NC7=O)cn6)CC5)CC4)cn3)nc2-c2ccncc2)c1F` [Compound 313, 1-(6-{4-[(4-{6-[4-(5-chloro-3-{[ethyl(methyl)sulfamoyl]amino}-2-fluorophenyl)-3-(pyridin-4-yl)-1H-pyrazol-1-yl]pyridin-3-yl}piperazin-1-yl)methyl]piperidin-1-yl}pyridin-3-yl)-1,3-diazinane-2,4-dione], the DC50 is 10 to 50 nM on BRAF G466V (setting [9]), less than 10 nM at BRAF D594G (setting [11]), 50 to 500 nM at BRAF G469A (setting [13]) and 10 to 50 nM at BRAF V600E (setting [15]). Moreover, the Dmax was more than 70% on BRAF G466V (setting [10]), 30 to 70% at BRAF D594G (setting [12]), 30 to 70% at BRAF G469A (setting [14]) and more than 70% on BRAF V600E (setting [16]).
Regarding `CCN(C)S(=O)(=O)Nc1cccc(-c2nc(C(C)(C)C)sc2-c2ccnc(Nc3ccc(N4CCN(CC5CCN(c6ccc([C@H]7CCC(=O)NC7=O)cn6)CC5)CC4)cn3)n2)c1F` [Compound 29, (3R)-3-{6-[4-({4-[6-({4-[2-tert-butyl-4-(3-{[ethyl(methyl)sulfamoyl]amino}-2-fluorophenyl)-1,3-thiazol-5-yl]pyrimidin-2-yl}amino)pyridin-3-yl]piperazin-1-yl}methyl)piperidin-1-yl]pyridin-3-yl}piperidine-2,6-dione], the DC50 was less than 10 nM at BRAF G466V (setting [1]), less than 10 nM on BRAF D594G (setting [3]), 10 to 50 nM at BRAF G469A (setting [5]) and 10 to 50 nM at BRAF V600E (setting [7]). For the same molecule, the Dmax was more than 70% on BRAF G466V (setting [2]), 30 to 70% on BRAF D594G (setting [4]), 30 to 70% on BRAF G469A (setting [6]) and more than 70% at BRAF V600E (setting [8]).
